Source: PMC11432330, “Novel Drug-like HsrA Inhibitors Exhibit Potent Narrow-Spectrum Antimicrobial Activities against Helicobacter pylori” (International Journal of Molecular Sciences, 2024)

System: H. pylori 26695
Assay: In vivo inhibition of HsrA: RNA-Seq transcriptomic analysis of exposed cells
Format: cell-based, Helicobacter pylori
Conditions: for log2 Fold Change: exposed to lethal concentrations vs control
Description: Bacterial growth from three blood agar plates of H. pylori ATCC 700392 (aka 26695) incubated for 48 h at 37 °C under microaerobic conditions was aseptically resuspended in BHI + FBS and adjusted to 10^7 CFU/mL. BHI broth cultures were incubated microaerobically at 37 °C for 24 h. […] At this time, bacterial growth was stopped by adding 1.5 mL ice-cold RNA stop solution (95% absolute ethanol, 5% acid-buffered phenol) and subsequently incubated on ice. Control samples were exposed to the same amount of DMSO instead of the inhibitor. Helicobacter cells from all samples were harvested by centrifugation (4000 rpm at 4 °C for 10 min), then the pellets were quickly frozen by immersion in liquid nitrogen and stored at −80 °C.
RNA-Seq analysis was performed by GENEWIZ (Azenta Life Sciences, Leipzig, Germany). Frozen cell pellets from two biological replicates of each treatment condition were properly submitted to GENEWIZ in dry ice. RNA-Seq libraries were prepared according to standard protocols via rRNA depletion, RNA fragmentation and random priming, reverse transcription, 5’-phosphorylation and dA-tailing of cDNAs, adaptor ligation, and PCR enrichment. Once the quality of each library was confirmed, they were sequenced on an Illumina NovaSeq 6000 (Illumina, San Diego, CA, USA) with 150-bp paired-ends. Raw sequence reads were filtered to remove possible adapter sequences and nucleotides with poor quality using Trimmomatic v.0.36 [105]. The trimmed reads were subsequently mapped to the H. pylori strain 26695 reference genome NC_000915.1 available on NCBI, by using the Bowtie2 aligner v.2.2.6 [106]. Unique gene hit counts were calculated by using featureCounts from the Subread package v.1.5.2. Only unique reads that fell within the gene regions were counted. Using DESeq2 [108], a comparison of the gene expression between the control and treated groups of samples was performed. The Wald test was used to generate p-values and log2 fold changes. Genes with an adjusted p-value < 0.05 and absolute log2 fold change >1 were considered as differentially expressed genes (DEGs) for each comparison. The RNA-Seq data generated in this study have been deposited in ArrayExpress with the accession number E-MTAB-14255.

NC(=NOC(=O)Nc1ccc(Cl)cc1)c1csc([N+](=O)[O-])c1 [Ligand V, N′-{[(4-chloroanilino)carbonyl]}oxy-5-nitrothiophene-3-carboximidamide]
log2 Fold Change (gene HP1464): -0.584
log2 Fold Change (gene HP1467): 1.322
log2 Fold Change HP1469 (gene HP1469, lethal concentrations of V vs control): 0.362
log2 Fold Change (gene HP1470): 1.312
log2 Fold Change HP1473 (gene HP1473, lethal concentrations of V vs control): 0.275
log2 Fold Change (gene HP1481): -0.602
log2 Fold Change HP1492 (gene HP1492, lethal concentrations of V vs control): 0.282
log2 Fold Change HP1499 (gene HP1499, lethal concentrations of V vs control): 0.340
log2 Fold Change HP1501 (gene HP1501, lethal concentrations of V vs control): 0.305
log2 Fold Change (gene HP1504): 1.311
log2 Fold Change HP1505 (gene HP1505, lethal concentrations of V vs control): 0.278
log2 Fold Change HP1512 (gene HP1512, lethal concentrations of V vs control): 0.234
log2 Fold Change (gene HP1513): -0.489
log2 Fold Change HP1521 (gene HP1521, lethal concentrations of V vs control): 0.260
log2 Fold Change (gene HP1537): -0.495
log2 Fold Change HP1539 (gene HP1539, lethal concentrations of V vs control): 0.288
log2 Fold Change (gene HP1556): -0.480
log2 Fold Change HP1562 (gene HP1562, lethal concentrations of V vs control): 0.282
log2 Fold Change (gene HP1572): -0.532
log2 Fold Change (gene HP1573): -0.478
log2 Fold Change (gene HPrrnA16S): 2.639
log2 Fold Change (gene acpS): -0.554
log2 Fold Change adk (gene adk, lethal concentrations of V vs control): 0.370
log2 Fold Change aroB (gene aroB, lethal concentrations of V vs control): 0.331
log2 Fold Change ddl (gene ddl, lethal concentrations of V vs control): 0.165
log2 Fold Change dnaA (gene dnaA, lethal concentrations of V vs control): 0.315
log2 Fold Change dnaG (gene dnaG, lethal concentrations of V vs control): 0.180
log2 Fold Change dut (gene dut, lethal concentrations of V vs control): 0.253
log2 Fold Change fbcH (gene fbcH, lethal concentrations of V vs control): 0.402
log2 Fold Change flgD (gene flgD, lethal concentrations of V vs control): 0.479
log2 Fold Change flgH (gene flgH, lethal concentrations of V vs control): 0.237
log2 Fold Change flhF (gene flhF, lethal concentrations of V vs control): 0.252
log2 Fold Change (gene fliQ): -0.518
log2 Fold Change fliR (gene fliR, lethal concentrations of V vs control): 0.363
log2 Fold Change folE (gene folE, lethal concentrations of V vs control): 0.244
log2 Fold Change fusA (gene fusA, lethal concentrations of V vs control): 0.268
log2 Fold Change (gene gcp): -0.507
log2 Fold Change glmM (gene glmM, lethal concentrations of V vs control): 0.344
log2 Fold Change (gene gltX): -0.588
log2 Fold Change gmk (gene gmk, lethal concentrations of V vs control): 0.172
log2 Fold Change groES (gene groES, lethal concentrations of V vs control): 0.428
log2 Fold Change guaA (gene guaA, lethal concentrations of V vs control): 0.370
log2 Fold Change gyrB (gene gyrB, lethal concentrations of V vs control): 0.200
log2 Fold Change (gene hemC): -0.538
log2 Fold Change hypA (gene hypA, lethal concentrations of V vs control): 0.375
log2 Fold Change infB (gene infB, lethal concentrations of V vs control): 0.319
log2 Fold Change ksgA (gene ksgA, lethal concentrations of V vs control): 0.343
log2 Fold Change (gene lpxB): -0.543
log2 Fold Change lpxK (gene lpxK, lethal concentrations of V vs control): 0.332
log2 Fold Change mnmA (gene mnmA, lethal concentrations of V vs control): 0.256
log2 Fold Change motB (gene motB, lethal concentrations of V vs control): 0.465
log2 Fold Change mraY (gene mraY, lethal concentrations of V vs control): 0.155
log2 Fold Change nusB (gene nusB, lethal concentrations of V vs control): 0.152
log2 Fold Change oorC (gene oorC, lethal concentrations of V vs control): 0.231
log2 Fold Change (gene panC): 1.338
log2 Fold Change (gene pheT): -0.561
log2 Fold Change porA (gene porA, lethal concentrations of V vs control): 0.146
log2 Fold Change prfB (gene prfB, lethal concentrations of V vs control): 0.329
log2 Fold Change pyrH (gene pyrH, lethal concentrations of V vs control): 0.243
log2 Fold Change recA (gene recA, lethal concentrations of V vs control): 0.430
log2 Fold Change (gene rnc): -0.477
log2 Fold Change (gene rplQ): -0.590
log2 Fold Change (gene rplW): -0.487
log2 Fold Change (gene rplX): -0.561
log2 Fold Change rpsB (gene rpsB, lethal concentrations of V vs control): 0.177
log2 Fold Change (gene rpsI): -0.579
log2 Fold Change ruvA (gene ruvA, lethal concentrations of V vs control): 0.457
log2 Fold Change ruvB (gene ruvB, lethal concentrations of V vs control): 0.388
log2 Fold Change secD (gene secD, lethal concentrations of V vs control): 0.450
log2 Fold Change (gene tRNA-Arg-4): -0.569
log2 Fold Change (gene tRNA-Gln-1): 1.327
log2 Fold Change tRNA-Ser-1 (gene tRNA-Ser-1, lethal concentrations of V vs control): 0.297
log2 Fold Change (gene tRNA-Ser-2): 1.370
log2 Fold Change tRNA-Ser-3 (gene tRNA-Ser-3, lethal concentrations of V vs control): 0.425
log2 Fold Change (gene tRNA-Trp-1): -0.513
log2 Fold Change (gene tgt): -0.523
log2 Fold Change trpD (gene trpD, lethal concentrations of V vs control): 0.327
log2 Fold Change tsf (gene tsf, lethal concentrations of V vs control): 0.474
log2 Fold Change uvrA (gene uvrA, lethal concentrations of V vs control): 0.417
log2 Fold Change (gene xseA): -0.471
log2 Fold Change yajC (gene yajC, lethal concentrations of V vs control): 0.146
